Assay results published in ChEMBL document CHEMBL2429781, “Cell-based medicinal chemistry optimization of high-throughput screening (HTS) hits for orally active antimalarials. Part 1: challenges in potency and absorption, distribution, metabolism, excretion/pharmacokinetics (ADME/PK)” (J Med Chem, 2013).
pEC50, pIC50: −log10 of the molar value. In brackets after ≈: the same amount, converted by molar mass. Blank lines part the entries; values can stand above or below the compound they belong to.

Legend:
[1] = system: Plasmodium falciparum; assay: Antiplasmodial activity against chloroquine-sensitive Plasmodium falciparum 3D7; assay type: functional, organism-based
[2] = Half life in mouse liver microsomes; assay type: ADME, Microsome
[3] = Aqueous solubility of the compound; assay type: physicochemical; settings: aqueous (not further specified)
[4] = system: Plasmodium falciparum; assay: Antiplasmodial activity against Plasmodium falciparum W2/Indochina after 72 hrs by SYBR Green method; assay type: functional
[5] = biological target: Voltage-gated inwardly rectifying potassium channel KCNH2 (Homo sapiens, UniProt Q12809); assay: Binding affinity to human ERG channel
Sequence of Voltage-gated inwardly rectifying potassium channel KCNH2 (Q12809 whole entry): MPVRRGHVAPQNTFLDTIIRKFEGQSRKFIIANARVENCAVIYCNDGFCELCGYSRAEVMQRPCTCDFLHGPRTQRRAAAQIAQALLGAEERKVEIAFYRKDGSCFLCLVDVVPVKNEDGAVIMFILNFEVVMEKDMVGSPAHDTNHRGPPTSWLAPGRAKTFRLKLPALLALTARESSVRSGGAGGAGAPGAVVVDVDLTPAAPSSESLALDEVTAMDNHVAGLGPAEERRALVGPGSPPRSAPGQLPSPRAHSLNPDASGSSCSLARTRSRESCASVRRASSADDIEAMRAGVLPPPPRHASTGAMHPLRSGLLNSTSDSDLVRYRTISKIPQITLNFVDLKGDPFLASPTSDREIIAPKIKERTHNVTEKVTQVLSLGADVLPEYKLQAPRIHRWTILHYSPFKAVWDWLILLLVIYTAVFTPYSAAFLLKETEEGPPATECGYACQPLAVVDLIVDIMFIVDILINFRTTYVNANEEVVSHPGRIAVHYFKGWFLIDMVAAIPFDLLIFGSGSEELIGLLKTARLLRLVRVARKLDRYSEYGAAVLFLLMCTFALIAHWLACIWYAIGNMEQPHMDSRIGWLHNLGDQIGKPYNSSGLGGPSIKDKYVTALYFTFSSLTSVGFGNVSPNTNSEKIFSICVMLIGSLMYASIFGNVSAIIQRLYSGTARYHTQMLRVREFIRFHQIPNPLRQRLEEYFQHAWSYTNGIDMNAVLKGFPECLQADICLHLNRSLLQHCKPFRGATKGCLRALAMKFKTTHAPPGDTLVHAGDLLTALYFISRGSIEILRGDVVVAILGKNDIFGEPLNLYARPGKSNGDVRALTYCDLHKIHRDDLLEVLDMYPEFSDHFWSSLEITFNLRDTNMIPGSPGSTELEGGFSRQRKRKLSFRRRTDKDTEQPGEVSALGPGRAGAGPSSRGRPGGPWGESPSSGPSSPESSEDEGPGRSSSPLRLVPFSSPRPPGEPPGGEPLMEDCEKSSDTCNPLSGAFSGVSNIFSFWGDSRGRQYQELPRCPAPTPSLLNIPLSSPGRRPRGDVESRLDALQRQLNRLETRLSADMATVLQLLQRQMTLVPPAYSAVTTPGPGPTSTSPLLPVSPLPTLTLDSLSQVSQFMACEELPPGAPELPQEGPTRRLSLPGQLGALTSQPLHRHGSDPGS

[6] = system: Plasmodium falciparum; assay: Antiplasmodial activity against Plasmodium falciparum W2; assay type: functional, organism-based
[7] = Solubility of the compound at pH 6.8; assay type: physicochemical; settings: buffer
[8] = system: Plasmodium falciparum; assay: Antimicrobial activity against clinical isolates of Plasmodium falciparum; assay type: functional, organism-based
[9] = Elimination half life in CD-1 mouse at 5 mg/kg, po; assay type: ADME, organism-based; design: dose 5 mg/kg, route oral; settings: in vivo, read-out: beta t1/2 (converted)
[10] = system: Plasmodium berghei; assay: Antiplasmodial activity against Plasmodium berghei infected po dosed CD-1 mouse model administered qd measured on day 4; assay type: functional; settings: 96 h
[11] = system: Plasmodium falciparum; assay: Antiplasmodial activity against blood stage Plasmodium falciparum 3D7 by SYBR Green method; assay type: functional, organism-based
[12] = system: Plasmodium falciparum; assay: Antiplasmodial activity against wild type Plasmodium falciparum 3D7; assay type: functional, organism-based
[13] = Half life in mouse hepatic microsomes by LC/MS analysis in presence of NADPH; assay type: ADME; settings: liver microsomes
[14] = system: Plasmodium falciparum; assay: Antiplasmodial activity against atovaquone-resistant Plasmodium falciparum Tm90.C2B after 72 hrs by MSF assay; assay type: functional, organism-based
[15] = system: Plasmodium falciparum; assay: Antiplasmodial activity against Plasmodium falciparum after 72 hrs by MSF assay; assay type: functional, organism-based
[16] = system: Plasmodium falciparum; assay: Antiplasmodial activity against blood stage form of Plasmodium falciparum NF54; assay type: functional, organism-based
[17] = system: Plasmodium; assay: Antimicrobial activity against Plasmodium; assay type: functional

pEC50 [6]: 8.22
SMILES: CC1(C)c2nc(-c3ccc(F)cc3)c(Nc3ccc(Cl)cc3)n2CCN1C(=O)CN
pIC50 [5]: 5.14

half-life [9]: 10.6 h
pEC50 [11]: 7.52
SMILES: CCOC(=O)c1c(-c2ccc(-c3ccc(OC(F)(F)F)cc3)cn2)[nH]c2ccccc2c1=O
ED50 [10]: 2 mg/kg

pEC50 [12]: 9.34
SMILES: CCOC(=O)c1c(C)[nH]c2cc(Cc3ccc(OC(F)(F)F)cc3)ccc2c1=O

pEC50 [16]: 9.00
SMILES: C[C@H]1Cc2c([nH]c3cc(Cl)c(F)cc23)[C@@]2(N1)C(=O)Nc1ccc(Cl)cc12 [CIPARGAMIN]

pEC50 [17]: 4.70
SMILES: Cc1nc(C)c(Cl)c(O)c1Cl [CLOPIDOL]

The remaining lines, values behind:

SMILES: FC(F)(F)Oc1ccc(Nc2cc(Nc3nccn3-c3cccc(C(F)(F)F)c3)ncn2)cc1
pEC50 [1]: 6.38

SMILES: O=c1c2c([nH]c3ccc(-c4ccc(C(F)(F)F)cc4)cc13)CCSC2
half-life [2]: > 3 h
solubility [3]: 2 µM (≈ 0.723 µg/mL)
Activity [4]: 30 nM

SMILES: COc1cc2[nH]c(C)c(-c3ccc(Oc4ccc(OC(F)(F)F)cc4)cc3)c(=O)c2cc1Cl
solubility [7]: < 1 µM
pEC50 [8]: 9.00

SMILES: CCCCCCCc1c(C)[nH]c2cc(F)cc(F)c2c1=O
half-life [13]: 0.245 h
pEC50 [14]: 7.10
pEC50 [15]: 10.00

SMILES: COc1ccc2c(=O)c(CCCCCC(F)(F)F)c(C)[nH]c2c1
pEC50 [14]: 7.18
pEC50 [15]: 7.52
